Data from patent US12384788B2, “1,4-dihydrobenzo[d]pyrazolo[3,4-f][1,3]diazepine derivatives and related compounds as LRRK2, NUAK1 and/or TYK2 kinase modulators for the treatment of e.g. autoimmune disease” (Origenis GMBH, priority 2019, dated 2025).

Target: T1, wt human TYK2, catalytic site (Homo sapiens, UniProt P29597)
T1 construct: wt human TYK2, catalytic site; purchased SignalChem
T1 sequence (P29597 897-1176 limits assumed): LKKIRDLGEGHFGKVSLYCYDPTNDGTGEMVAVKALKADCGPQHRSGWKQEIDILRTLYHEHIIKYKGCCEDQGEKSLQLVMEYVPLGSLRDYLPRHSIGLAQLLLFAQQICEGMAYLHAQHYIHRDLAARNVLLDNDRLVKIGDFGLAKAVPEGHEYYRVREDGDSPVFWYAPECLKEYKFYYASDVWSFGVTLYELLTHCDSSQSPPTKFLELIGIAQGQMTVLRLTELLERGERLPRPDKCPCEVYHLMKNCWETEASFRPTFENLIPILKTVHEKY
Experiment: HTRF KinEASE assay, TYK2
Type: biochemical
Conditions: 1 μM ATP; read-out: IC50, inhibitory activity toward TYK2
Description: Basic protocol for HTRF KinEASE assay (Cisbio/FRA) inhibitor studies involved two steps:
Enzymatic step: Addition of 4 μl of test compound in corresponding DMSO dilutions, 4 μl of kinase/substrate mixture, 2 μl of ATP into 384 well small volume plates. Incubation for at least 30 minutes at room temperature.
Detection step: Addition of 5 μl antibody and 5 μl streptavidin-XL665, read plate after 60 minutes. Data analysis of emission ratios according to KinEASE assay protocol.
Kinase and assay components were adjusted to final concentrations according to the kit protocol. For TYK2: 2 nM wt human TYK2, catalytic site (SignalChem/CAN), 1 μM HTRF KinEASE-TK Substrate-biotin, 1 μM ATP in 1× Kinase Buffer

- IC50: 10 to 100 nM
Compound: Fc1cccc(Cl)c1C1=Nc2cn[nH]c2-c2[nH]ncc2N1 [Compound 89, 5-(2-chloro-6-fluorophenyl)-4,9-dihydro-1H-dipyrazolo[4,3-d:3′,4′-f][1,3]diazepine]
